# Data as given in PubChem BioAssay (NCI).
#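 Test compounds were applied to cells in 96-well plates for 48 hours at 5 doses. GI50 = concentration required for 50% inhibition of growth. TGI: concentration producing complete growth inhibition.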
# Key:
# Test in all cases: NCI anticancer screen, dose series, 48 h
# COLO 205 colon = test system: COLO 205 colon
# SNB-75 CNS = test system: SNB-75 CNS
# RPMI-8226 leukemia = test system: RPMI-8226 leukemia
# NCI-H460 lung = test system: NCI-H460 lung
# EKVX NSCLC = test system: EKVX NSCLC
# RXF 393 renal = test system: RXF 393 renal
# CAKI-1 renal = test system: CAKI-1 renal
# SF-539 CNS = test system: SF-539 CNS
# SK-MEL-28 melanoma = test system: SK-MEL-28 melanoma
# U251 CNS = test system: U251 CNS
# UACC-257 melanoma = test system: UACC-257 melanoma
# SR leukemia = test system: SR leukemia
# OVCAR-4 ovarian = test system: OVCAR-4 ovarian
# MALME-3M melanoma = test system: MALME-3M melanoma
# SK-OV-3 ovarian = test system: SK-OV-3 ovarian
# K-562 leukemia = test system: K-562 leukemia
# A549 NSCLC = test system: A549 NSCLC
# NCI-H522 lung = test system: NCI-H522 lung
# OVCAR-8 ovarian = test system: OVCAR-8 ovarian
# HL-60(TB) leukemia = test system: HL-60(TB) leukemia
# M14 melanoma = test system: M14 melanoma
# ACHN renal = test system: ACHN renal
# NCI-H226 lung = test system: NCI-H226 lung
# 786-0 renal = test system: 786-0 renal
# KM12 colon = test system: KM12 colon
# A498 renal = test system: A498 renal
# LOX IMVI melanoma = test system: LOX IMVI melanoma
# MDA-MB-231 breast = test system: MDA-MB-231 breast
# HCT-15 colon = test system: HCT-15 colon
# SW-620 colon = test system: SW-620 colon
# UO-31 renal = test system: UO-31 renal
# NCI/ADR-RES ovarian = test system: NCI/ADR-RES ovarian
# UACC-62 melanoma = test system: UACC-62 melanoma
# MCF7 breast = test system: MCF7 breast
# HOP-92 NSCLC = test system: HOP-92 NSCLC
# OVCAR-3 ovarian = test system: OVCAR-3 ovarian
# CCRF-CEM leukemia = test system: CCRF-CEM leukemia
# MDA-MB-435 = test system: MDA-MB-435
# SK-MEL-2 melanoma = test system: SK-MEL-2 melanoma
# SK-MEL-5 melanoma = test system: SK-MEL-5 melanoma
# PC-3 prostate = test system: PC-3 prostate
# HCC-2998 colon = test system: HCC-2998 colon
# HS 578T breast = test system: HS 578T breast
# MOLT-4 leukemia = test system: MOLT-4 leukemia
# HOP-62 NSCLC = test system: HOP-62 NSCLC
# HCT-116 colon = test system: HCT-116 colon
# T-47D breast = test system: T-47D breast
# SNB-19 CNS = test system: SNB-19 CNS
# OVCAR-5 ovarian = test system: OVCAR-5 ovarian
# IGROV1 ovarian = test system: IGROV1 ovarian
# SN12C renal = test system: SN12C renal
# DU-145 prostate = test system: DU-145 prostate
# TK-10 renal = test system: TK-10 renal
# NCI-H23 lung = test system: NCI-H23 lung
# HT29 colon = test system: HT29 colon
# SF-295 CNS = test system: SF-295 CNS
# BT-549 breast = test system: BT-549 breast
# SF-268 CNS = test system: SF-268 CNS
structure (smiles),measurement,setting,value
COc1cccc(-n2ncc3c(N/N=C/c4ccc(S(C)(=O)=O)cc4)ncnc32)c1,GI50,COLO 205 colon,7.64 µM
same,TGI,COLO 205 colon,> 25 µM
same,GI50,SNB-75 CNS,1.89 µM
same,TGI,SNB-75 CNS,4.32 µM
same,GI50,RPMI-8226 leukemia,> 22.9 µM
same,TGI,RPMI-8226 leukemia,> 25 µM
same,GI50,NCI-H460 lung,6.56 µM
same,TGI,NCI-H460 lung,> 25 µM
same,GI50,EKVX NSCLC,> 22.9 µM
same,TGI,EKVX NSCLC,> 25 µM
same,GI50,RXF 393 renal,2.2 µM
same,TGI,RXF 393 renal,8.76 µM
same,GI50,CAKI-1 renal,4.81 µM
same,TGI,CAKI-1 renal,> 25 µM
same,GI50,SF-539 CNS,6.22 µM
same,TGI,SF-539 CNS,> 25 µM
same,GI50,SK-MEL-28 melanoma,9.26 µM
same,TGI,SK-MEL-28 melanoma,> 25 µM
same,GI50,U251 CNS,4.99 µM
same,TGI,U251 CNS,17.6 µM
same,GI50,UACC-257 melanoma,> 18 µM
same,TGI,UACC-257 melanoma,> 25 µM
same,GI50,SR leukemia,> 12.4 µM
same,TGI,SR leukemia,> 25 µM
same,GI50,OVCAR-4 ovarian,13.1 µM
same,TGI,OVCAR-4 ovarian,> 25 µM
same,GI50,MALME-3M melanoma,4.21 µM
same,TGI,MALME-3M melanoma,> 25 µM
same,GI50,SK-OV-3 ovarian,4.24 µM
same,TGI,SK-OV-3 ovarian,10.7 µM
same,GI50,K-562 leukemia,> 6.65 µM
same,TGI,K-562 leukemia,> 25 µM
same,GI50,A549 NSCLC,9.24 µM
same,TGI,A549 NSCLC,> 25 µM
same,GI50,NCI-H522 lung,6.78 µM
same,TGI,NCI-H522 lung,20.1 µM
same,GI50,OVCAR-8 ovarian,6.11 µM
same,TGI,OVCAR-8 ovarian,15.6 µM
same,GI50,HL-60(TB) leukemia,> 25 µM
same,TGI,HL-60(TB) leukemia,> 25 µM
same,GI50,M14 melanoma,5.74 µM
same,TGI,M14 melanoma,> 25 µM
same,GI50,ACHN renal,6.27 µM
same,TGI,ACHN renal,> 25 µM
same,GI50,NCI-H226 lung,5.46 µM
same,TGI,NCI-H226 lung,18.1 µM
same,GI50,786-0 renal,7.1 µM
same,TGI,786-0 renal,20.1 µM
same,GI50,KM12 colon,6.29 µM
same,TGI,KM12 colon,> 25 µM
same,GI50,A498 renal,0.75 µM
same,TGI,A498 renal,11.3 µM
same,GI50,LOX IMVI melanoma,2.34 µM
same,TGI,LOX IMVI melanoma,> 25 µM
same,GI50,MDA-MB-231 breast,9.09 µM
same,TGI,MDA-MB-231 breast,> 24.1 µM
same,GI50,HCT-15 colon,> 25 µM
same,TGI,HCT-15 colon,> 25 µM
same,GI50,SW-620 colon,> 25 µM
same,TGI,SW-620 colon,> 25 µM
same,GI50,UO-31 renal,5.77 µM
same,TGI,UO-31 renal,14.3 µM
same,GI50,NCI/ADR-RES ovarian,9.1 µM
same,TGI,NCI/ADR-RES ovarian,> 25 µM
same,GI50,UACC-62 melanoma,3.47 µM
same,TGI,UACC-62 melanoma,> 16.9 µM
same,GI50,MCF7 breast,9.87 µM
same,TGI,MCF7 breast,> 25 µM
same,GI50,HOP-92 NSCLC,7.36 µM
same,TGI,HOP-92 NSCLC,18.7 µM
same,GI50,OVCAR-3 ovarian,7.41 µM
same,TGI,OVCAR-3 ovarian,> 23 µM
same,GI50,CCRF-CEM leukemia,> 25 µM
same,TGI,CCRF-CEM leukemia,> 25 µM
same,GI50,MDA-MB-435,3.55 µM
same,TGI,MDA-MB-435,> 25 µM
same,GI50,SK-MEL-2 melanoma,9.94 µM
same,TGI,SK-MEL-2 melanoma,> 25 µM
same,GI50,SK-MEL-5 melanoma,3.45 µM
same,TGI,SK-MEL-5 melanoma,> 15.8 µM
same,GI50,PC-3 prostate,6.63 µM
same,TGI,PC-3 prostate,> 20.9 µM
same,GI50,HCC-2998 colon,12.4 µM
same,TGI,HCC-2998 colon,> 25 µM
same,GI50,HS 578T breast,0.608 µM
same,TGI,HS 578T breast,7.34 µM
same,GI50,MOLT-4 leukemia,> 25 µM
same,TGI,MOLT-4 leukemia,> 25 µM
same,GI50,HOP-62 NSCLC,5.85 µM
same,TGI,HOP-62 NSCLC,11.5 µM
same,GI50,HCT-116 colon,8.46 µM
same,TGI,HCT-116 colon,> 25 µM
same,GI50,T-47D breast,7.4 µM
same,TGI,T-47D breast,> 21 µM
same,GI50,SNB-19 CNS,11.5 µM
same,TGI,SNB-19 CNS,> 25 µM
same,GI50,OVCAR-5 ovarian,> 25 µM
same,TGI,OVCAR-5 ovarian,> 25 µM
same,GI50,IGROV1 ovarian,11 µM
same,TGI,IGROV1 ovarian,> 25 µM
same,GI50,SN12C renal,9.88 µM
same,TGI,SN12C renal,> 25 µM
same,GI50,DU-145 prostate,16.4 µM
same,TGI,DU-145 prostate,> 25 µM
same,GI50,TK-10 renal,8.4 µM
same,TGI,TK-10 renal,> 23.3 µM
same,GI50,NCI-H23 lung,11.9 µM
same,TGI,NCI-H23 lung,> 25 µM
same,GI50,HT29 colon,3.49 µM
same,TGI,HT29 colon,10.5 µM
same,GI50,SF-295 CNS,12.3 µM
same,TGI,SF-295 CNS,> 25 µM
same,GI50,BT-549 breast,13.5 µM
same,TGI,BT-549 breast,> 25 µM
same,GI50,SF-268 CNS,5.98 µM
same,TGI,SF-268 CNS,13.5 µM
